Laboratory results: patent US6423689B1, “Peptidyl calcium channel blockers” (Warner-Lambert Company, priority 1997, dated 2002)

Molecular target: T1, N-type Ca2+ channels in IMR-32 cells (Homo sapiens, UniProt Q00975)
T1 construct: host or cells: IMR-32 cells, differentiated with dibutyryl cAMP and bromodeoxyuridine
Assay: Inhibition of N-type calcium flux in IMR-32 cells (Indo-1 fluorescence, nitrendipine present)
Assay type: cell-based
Conditions: 1 μM
Protocol: Measurement of N-type Ca^2+ Channel Blocking Potencies of Compounds in IMR-32 Cells Using the Fluorescent Ca^2+ Indicator Indo-1
IMR-32 cells are a human tumoral cell line of neural origin. […] Calcium flux into these cells may be induced by stimulation with elevated potassium concentrations. The L-channel component of calcium flux may be blocked by adding 5 μM nitrendipine. The remaining component of calcium entry into the IMR-32 cells is due to calcium flux through N-type calcium channels. Intracellular calcium concentrations are measured using the fluorescent calcium indicator Indo 1. The effect of drug concentration on calcium uptake is studied.
The IMR-32 cell line was obtained from the American Type Culture Collection (Rockville, Md.). Cells were grown in Eagle's Minimum Essential Medium with Eagle's salts supplemented with 10% fetal bovine serum, 2 mM L-Gln and antibiotic/antimycotic mixture (Gibco). […] After 7 to 13 days of differentiation, cells were detached using 0.5 mM EDTA and loaded with 5 μM Indo-1 acetoxymethyl ester (Molecular Probes, Eugene, OR) at […] for 45 minutes. Loaded cells were washed twice, resuspended (˜10^7 cells/mL) in assay buffer (10 mM HEPES/Tris pH 7.4 in Hank's Balanced Salt Solution without bicarbonate or phenol red containing 0.5% bovine serum albumin) and kept on ice until use. Fluorescence measurements were carried out in a Photon Technology International (PTI, South Brunswick, N.J.) Model RF-F3004 spectrofluorometer with dual emission monochromators using excitation at 350 nm and emission at 400 and 490 nm. The instrument was equipped with a thermostated cuvette holder with stirring capabilities as well as with a computer-controlled pump which allowed for reagent addition during measurement. Instrument control and data collection was done by PTI's OSCAR software running on an IBM compatible computer. […] Samples were incubated for 10 minutes at 30° C. and then aliquoted into three 10×10 mm disposable acrylic cuvettes. Emission signals at 400 and 490 nm were acquired from each cuvette at 30° C. for 50 seconds. At 20 seconds after the start of reading, cells were depolarized by the addition of 160 μL of stimulation solution (1M KCl, 68 mM CaCl2) to the cuvette via the computer-controlled pump. Ratio of dual emission signals (400 nm/490 nm), which is proportional to intracellular Ca^2+ concentration, was plotted against time, and the difference between maximal response after stimulation and basal value (before stimulation) was determined. Values obtained in this way were plotted as a function of drug concentration. IC50 values of test compounds were calculated by fitting a four-parameter logistic function to the data using the least squares method.

T1 sequence (Q00975 whole entry): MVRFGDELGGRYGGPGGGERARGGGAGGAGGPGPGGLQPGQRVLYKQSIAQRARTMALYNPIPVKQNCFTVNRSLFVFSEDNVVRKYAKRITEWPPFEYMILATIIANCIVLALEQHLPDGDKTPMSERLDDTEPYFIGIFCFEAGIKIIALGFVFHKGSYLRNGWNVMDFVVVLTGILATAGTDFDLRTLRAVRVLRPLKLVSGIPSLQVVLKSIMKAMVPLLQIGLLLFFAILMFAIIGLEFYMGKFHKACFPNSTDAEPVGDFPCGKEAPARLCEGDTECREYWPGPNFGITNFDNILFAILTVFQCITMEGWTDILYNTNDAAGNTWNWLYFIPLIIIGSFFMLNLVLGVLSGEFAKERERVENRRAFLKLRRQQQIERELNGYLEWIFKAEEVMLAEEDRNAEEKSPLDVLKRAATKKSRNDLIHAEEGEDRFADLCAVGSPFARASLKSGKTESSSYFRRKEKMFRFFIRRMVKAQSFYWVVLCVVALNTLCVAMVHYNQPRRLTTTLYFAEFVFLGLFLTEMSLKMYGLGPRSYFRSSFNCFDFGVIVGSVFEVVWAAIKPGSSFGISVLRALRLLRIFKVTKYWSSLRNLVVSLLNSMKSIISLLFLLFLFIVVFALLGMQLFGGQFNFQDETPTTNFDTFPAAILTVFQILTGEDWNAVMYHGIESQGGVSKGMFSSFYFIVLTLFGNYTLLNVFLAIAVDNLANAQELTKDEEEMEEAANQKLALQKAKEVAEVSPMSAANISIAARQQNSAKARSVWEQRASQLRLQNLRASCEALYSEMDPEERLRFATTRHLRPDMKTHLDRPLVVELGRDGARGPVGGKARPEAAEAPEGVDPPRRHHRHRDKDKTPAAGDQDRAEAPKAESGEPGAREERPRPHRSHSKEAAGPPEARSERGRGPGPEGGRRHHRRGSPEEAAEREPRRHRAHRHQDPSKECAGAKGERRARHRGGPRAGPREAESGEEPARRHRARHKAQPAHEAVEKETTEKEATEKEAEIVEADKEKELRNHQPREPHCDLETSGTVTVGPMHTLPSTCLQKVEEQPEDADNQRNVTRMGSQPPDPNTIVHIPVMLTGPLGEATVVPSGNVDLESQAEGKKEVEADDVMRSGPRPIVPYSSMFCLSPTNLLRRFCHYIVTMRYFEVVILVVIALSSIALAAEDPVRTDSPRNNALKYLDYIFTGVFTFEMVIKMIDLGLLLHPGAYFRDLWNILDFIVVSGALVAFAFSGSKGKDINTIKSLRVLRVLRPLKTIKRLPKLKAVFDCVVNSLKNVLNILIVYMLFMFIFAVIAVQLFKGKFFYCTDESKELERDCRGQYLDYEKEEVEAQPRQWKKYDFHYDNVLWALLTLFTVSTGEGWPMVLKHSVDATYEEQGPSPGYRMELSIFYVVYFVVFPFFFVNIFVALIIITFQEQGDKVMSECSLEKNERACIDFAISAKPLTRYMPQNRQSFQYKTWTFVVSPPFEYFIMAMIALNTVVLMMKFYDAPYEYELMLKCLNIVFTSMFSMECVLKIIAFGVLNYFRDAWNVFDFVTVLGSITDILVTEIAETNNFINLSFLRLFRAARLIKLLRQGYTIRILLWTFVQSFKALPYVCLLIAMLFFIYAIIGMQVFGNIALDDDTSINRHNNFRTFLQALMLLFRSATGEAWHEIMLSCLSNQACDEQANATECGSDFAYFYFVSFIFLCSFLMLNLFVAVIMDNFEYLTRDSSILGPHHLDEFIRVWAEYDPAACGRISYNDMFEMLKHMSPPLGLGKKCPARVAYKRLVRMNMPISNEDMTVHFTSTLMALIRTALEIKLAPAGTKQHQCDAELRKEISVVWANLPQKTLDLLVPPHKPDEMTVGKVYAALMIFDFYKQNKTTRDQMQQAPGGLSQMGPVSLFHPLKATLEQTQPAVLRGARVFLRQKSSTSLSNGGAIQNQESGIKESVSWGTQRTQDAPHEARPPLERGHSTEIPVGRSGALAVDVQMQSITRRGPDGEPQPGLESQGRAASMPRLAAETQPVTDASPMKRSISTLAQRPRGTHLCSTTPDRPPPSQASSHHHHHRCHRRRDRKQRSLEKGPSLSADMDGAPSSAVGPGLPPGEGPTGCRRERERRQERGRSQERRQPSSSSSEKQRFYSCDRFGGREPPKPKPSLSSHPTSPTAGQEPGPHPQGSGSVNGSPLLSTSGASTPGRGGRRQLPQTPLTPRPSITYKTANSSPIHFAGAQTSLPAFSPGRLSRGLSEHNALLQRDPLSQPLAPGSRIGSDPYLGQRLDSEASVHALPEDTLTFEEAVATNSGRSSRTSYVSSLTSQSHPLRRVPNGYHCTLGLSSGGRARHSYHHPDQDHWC
T1 sequence (P54289 25-956 partner limits assumed): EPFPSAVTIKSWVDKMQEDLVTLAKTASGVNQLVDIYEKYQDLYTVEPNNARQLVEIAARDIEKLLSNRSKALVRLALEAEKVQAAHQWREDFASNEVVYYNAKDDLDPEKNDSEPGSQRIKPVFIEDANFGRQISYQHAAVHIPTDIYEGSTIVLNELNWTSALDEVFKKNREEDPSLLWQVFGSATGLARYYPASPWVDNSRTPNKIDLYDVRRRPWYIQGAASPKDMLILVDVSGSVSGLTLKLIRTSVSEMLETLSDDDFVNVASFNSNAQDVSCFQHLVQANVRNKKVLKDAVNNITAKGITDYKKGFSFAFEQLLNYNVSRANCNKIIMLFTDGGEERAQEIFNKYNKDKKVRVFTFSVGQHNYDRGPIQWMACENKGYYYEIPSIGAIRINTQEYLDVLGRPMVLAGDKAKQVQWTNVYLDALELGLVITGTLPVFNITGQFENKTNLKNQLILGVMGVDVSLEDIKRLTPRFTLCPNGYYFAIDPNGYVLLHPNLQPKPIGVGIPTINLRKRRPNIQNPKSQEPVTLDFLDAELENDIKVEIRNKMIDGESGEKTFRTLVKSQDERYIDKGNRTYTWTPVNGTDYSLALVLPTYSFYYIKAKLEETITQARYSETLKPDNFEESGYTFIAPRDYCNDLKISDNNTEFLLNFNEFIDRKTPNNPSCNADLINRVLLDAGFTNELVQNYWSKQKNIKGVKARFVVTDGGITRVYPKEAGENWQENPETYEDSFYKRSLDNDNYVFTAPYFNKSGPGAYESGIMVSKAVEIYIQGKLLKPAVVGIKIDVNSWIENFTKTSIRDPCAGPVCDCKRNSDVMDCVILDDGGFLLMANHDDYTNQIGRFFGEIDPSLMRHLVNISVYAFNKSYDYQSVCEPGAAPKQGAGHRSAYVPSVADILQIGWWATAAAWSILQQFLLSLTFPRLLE
T1 sequence (P54289 957-1103 partner limits assumed): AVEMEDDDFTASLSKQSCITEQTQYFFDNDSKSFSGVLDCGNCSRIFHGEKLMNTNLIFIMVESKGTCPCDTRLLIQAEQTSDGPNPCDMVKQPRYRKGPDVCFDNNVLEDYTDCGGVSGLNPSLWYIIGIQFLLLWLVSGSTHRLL
T1 sequence (P54284 whole entry partner): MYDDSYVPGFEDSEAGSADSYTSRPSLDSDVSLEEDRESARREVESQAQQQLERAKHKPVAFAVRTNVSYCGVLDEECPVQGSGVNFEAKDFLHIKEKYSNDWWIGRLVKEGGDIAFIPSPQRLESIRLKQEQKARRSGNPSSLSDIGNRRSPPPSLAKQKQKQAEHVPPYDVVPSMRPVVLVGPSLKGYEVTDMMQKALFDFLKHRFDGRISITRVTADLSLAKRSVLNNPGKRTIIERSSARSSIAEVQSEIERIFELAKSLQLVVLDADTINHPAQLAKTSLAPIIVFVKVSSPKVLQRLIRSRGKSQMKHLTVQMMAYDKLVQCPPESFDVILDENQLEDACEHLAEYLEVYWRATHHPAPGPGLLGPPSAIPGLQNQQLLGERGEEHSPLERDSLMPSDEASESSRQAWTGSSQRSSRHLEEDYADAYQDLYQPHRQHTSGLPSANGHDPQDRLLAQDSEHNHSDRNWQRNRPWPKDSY

Row | Compound | Inhibition of Calcium Flux in IMR-32 Cells % Inhibition at 1 μM
1 | CSc1ccc(NC(=O)N[C@@H](CC(C)C)C(=O)N[C@@H](Cc2ccc(OCc3ccccc3)cc2)C(=O)OC(C)(C)C)cc1 (relative stereo) [Example 64, [S-(R*,R*)]-3-(4-Benzyloxy-phenyl)-2-{4-methyl-2-[3-(4-methylsulfanyl-phenyl)-ureido]-pentanoylamino}-propionic acid tert-butyl ester] | 31%
2 | CC(C)C[C@H](NC(=O)Nc1ccc(F)cc1F)C(=O)N[C@@H](Cc1ccc(OCc2ccccc2)cc1)C(=O)OC(C)(C)C (relative stereo) [Example 69, [S-(R*,R*)]-3-(4-Benzyloxy-phenyl)-2-{2-[3-(2,4-difluoro-phenyl)-ureido]-4-methyl-pentanoylamino}-propionic acid tert-butyl ester] | 31%
3 | COc1ccccc1NC(=O)N[C@@H](CC(C)C)C(=O)N[C@@H](Cc1ccc(OCc2ccccc2)cc1)C(=O)OC(C)(C)C (relative stereo) [Example 71, [S-(R*,R*)]-3-(4-Benzyloxy-phenyl)-2-{2-[3-(2-methoxy-phenyl)-ureido]-4-methyl-pentanoylamino}-propionic acid tert-butyl ester] | 55%
4 | Cc1cc(C)cc(NC(=O)N[C@@H](CC(C)C)C(=O)N[C@@H](Cc2ccc(OCc3ccccc3)cc2)C(=O)OC(C)(C)C)c1 (relative stereo) [Example 72, [S-(R*,R*)]-3-(4-Benzyloxy-phenyl)-2-{2-[3-(3,5-dimethyl-phenyl)-ureido]-4-methyl-pentanoylamino}-propionic acid tert-butyl ester] | 31%
5 | CC(C)C[C@H](NC(=O)Nc1ccccc1Cl)C(=O)N[C@@H](Cc1ccc(OCc2ccccc2)cc1)C(=O)OC(C)(C)C (relative stereo) [Example 73, [S-(R*,R*)]-3-(4-Benzyloxy-phenyl)-2-{2-[3-(2-chloro-phenyl)-ureido]-4-methylpentanoylamino}-propionic acid tert-butyl ester] | 60%
6 | CC(C)C[C@H](NC(=O)NC1CC1c1ccccc1)C(=O)N[C@@H](Cc1ccc(OCc2ccccc2)cc1)C(=O)OC(C)(C)C (relative stereo) [Example 75, [S-(R*,R*)]-3-(4-Benzyloxy-phenyl)-2-{4-methyl-2-[3-(2-phenyl-cyclopropyl)-ureido]-pentanoylamino}-propionic acid tert-butyl ester] | 28%
7 | CC(C)C[C@H](NC(=O)Nc1cccc(C(F)(F)F)c1)C(=O)N[C@@H](Cc1ccc(OCc2ccccc2)cc1)C(=O)OC(C)(C)C (relative stereo) [Example 76, [S-(R*,R*)]-3-(4-Benzyloxy-phenyl)-2-{4-methyl-2-[3-(3-trifluoromethyl-phenyl)-ureido]-pentanoylamino}-propionic acid tert-butyl ester] | 27%
8 | CCOC(=O)c1ccc(NC(=O)N[C@@H](CC(C)C)C(=O)N[C@@H](Cc2ccc(OCc3ccccc3)cc2)C(=O)OC(C)(C)C)cc1 (relative stereo) [Example 77, [S-(R*,R*)]-4-(3-{1-[2-(4-Benzyloxy-phenyl)-1tert-butoxycarbonyl-ethylcarbamoyl]-3-methylbutyl}-ureido)-benzoic acid ethyl ester] | 22%
9 | CC(C)C[C@H](NC(=O)Nc1ccc(Cl)c(C(F)(F)F)c1)C(=O)N[C@@H](Cc1ccc(OCc2ccccc2)cc1)C(=O)OC(C)(C)C (relative stereo) [Example 78, [S-(R*,R*)]-3-(4-Benzyloxy-phenyl)-2-{2-[3-(4-chloro-3-trifluoromethyl-phenyl)-ureido]-4-methyl-pentanoylamino}-propionic acid tert-butyl ester] | 24%
10 | CC(C)C[C@H](NC(=O)Nc1ccc(Cl)cc1Cl)C(=O)N[C@@H](Cc1ccc(OCc2ccccc2)cc1)C(=O)OC(C)(C)C (relative stereo) [Example 82, [S-(R*,R*)]-3-(4-Benzyloxy-phenyl)-2-{2-[3-(2,4-dichloro-phenyl)-ureido]-4-methyl-pentanoylamino}-propionic acid tert-butyl ester] | 55%
11 | CC(C)C[C@H](NC(=O)Nc1cc(C(F)(F)F)cc(C(F)(F)F)c1)C(=O)N[C@@H](Cc1ccc(OCc2ccccc2)cc1)C(=O)OC(C)(C)C (relative stereo) [Example 83, [S-(R*,R*)]-3-(4-Benzyloxy-phenyl)-2-{2-[3-(3,5-bis-trifluoromethyl-phenyl)-ureido]-4-methyl-pentanoylamino}-propionic acid tert-butyl ester] | 19%
12 | CC(C)C[C@H](NC(=O)Nc1ccc(Br)cc1)C(=O)N[C@@H](Cc1ccc(OCc2ccccc2)cc1)C(=O)OC(C)(C)C (relative stereo) [Example 84, [S-(R*,R*)]-3-(4-Benzyloxy-phenyl)-2-{2-[3-(^4-bromo-phenyl)-ureido]-4-methyl-pentanoylamino}-propionic acid tert-butyl ester] | 49%
13 | CC(C)C[C@H](NC(=O)Nc1ccc(Cl)c(Cl)c1)C(=O)N[C@@H](Cc1ccc(OCc2ccccc2)cc1)C(=O)OC(C)(C)C (relative stereo) [Example 85, [S-(R*,R*)]-3-(4-Benzyloxy-phenyl)-2-{2-[3-(3,4-dichloro-phenyl)-ureido]-4-methyl-pentanoylamino}-propionic acid tert-butyl ester] | 30%

Now from value to compound:

Row | Inhibition of Calcium Flux in IMR-32 Cells % Inhibition at 1 μM | Compound
14 | 28% | CC(C)C[C@H](NC(=O)Nc1ccc(Oc2ccccc2)cc1)C(=O)N[C@@H](Cc1ccc(OCc2ccccc2)cc1)C(=O)OC(C)(C)C (relative stereo) [Example 65, [S-(R*,R*)]-3-(4-Benzyloxy-phenyl)-2-{4-methyl-2-[3-(4-phenoxy-phenyl)-ureido]pentanoylamino}-propionic acid tert-butyl ester]
15 | 31% | COc1ccc(NC(=O)N[C@@H](CC(C)C)C(=O)N[C@@H](Cc2ccc(OCc3ccccc3)cc2)C(=O)OC(C)(C)C)cc1 (relative stereo) [Example 68, [S-(R*,R*)]-3-(4-Benzyloxy-phenyl)-2-{2-[3-(4-methoxy-phenyl)-ureido]-4-methyl-pentanoylamino}-propionic acid tert-butyl ester]
16 | 25% | CC(C)C[C@H](NC(=O)Nc1ccc(C(F)(F)F)cc1)C(=O)N[C@@H](Cc1ccc(OCc2ccccc2)cc1)C(=O)OC(C)(C)C (relative stereo) [Example 70, [S-(R*,R*)]-3-(4-Benzyloxy-phenyl)-2-{4-methyl-2-[3-(4-trifluoromethyl-phenyl)-ureido]-pentanoylamino}-propionic acid tert-butyl ester]
17 | 45% | CC(C)C[C@H](NC(=O)Nc1cccc(Cl)c1)C(=O)N[C@@H](Cc1ccc(OCc2ccccc2)cc1)C(=O)OC(C)(C)C (relative stereo) [Example 74, [S-(R*,R*)]-3-(4-Benzyloxy-phenyl)-2-{2-[3-(3-chloro-phenyl)-ureido]-4-methyl-pentanoylamino}-propionic acid tert-butyl ester]
18 | 23% | CC(C)C[C@H](NC(=O)Nc1cccc2ccccc12)C(=O)N[C@@H](Cc1ccc(OCc2ccccc2)cc1)C(=O)OC(C)(C)C (relative stereo) [Example 79, [S-(R*,R*)]-3-(4-Benzyloxy-phenyl)-2-[4-methyl-2-(3-naphthalen-1-yl-ureido)-pentanoylamino]-propionic acid tert-butyl ester]
19 | 40% | CC(C)C[C@H](NC(=O)Nc1ccc(Cl)cc1)C(=O)N[C@@H](Cc1ccc(OCc2ccccc2)cc1)C(=O)OC(C)(C)C (relative stereo) [Example 80, [S-(R*,R*)]-3-(4-Benzyloxy-phenyl)-2-{2-[3-(4-chloro-phenyl)-ureido]-4-methyl-pentanoylamino}-propionic acid tert-butyl ester]
20 | 32% | CC(C)C[C@H](NC(=O)Nc1cccc(Cl)c1Cl)C(=O)N[C@@H](Cc1ccc(OCc2ccccc2)cc1)C(=O)OC(C)(C)C (relative stereo) [Example 81, [S-(R*,R*)]-3-(4-Benzyloxy-phenyl)-2-{2-[3-(2,3-dichloro-phenyl)-ureido]-4-methyl-pentanoylamino}-propionic acid tert-butyl ester]
